Source: patent US9320760B2, “Compositions and methods of use of compounds to increase cancer patient survival time” (BioNumerik Pharmaceuticals, Inc., priority 2008, dated 2016)
“Also recorded” adds a separate entry of the source.

Assays:
GR + GSH = target: T1, GR + GSH (Homo sapiens, UniProt P00390); experiment: NADPH oxidation, GR + GSH; assay type: biochemical; details: Disulfide 0.5 mM; n = 6
T1 sequence (P00390 44-522): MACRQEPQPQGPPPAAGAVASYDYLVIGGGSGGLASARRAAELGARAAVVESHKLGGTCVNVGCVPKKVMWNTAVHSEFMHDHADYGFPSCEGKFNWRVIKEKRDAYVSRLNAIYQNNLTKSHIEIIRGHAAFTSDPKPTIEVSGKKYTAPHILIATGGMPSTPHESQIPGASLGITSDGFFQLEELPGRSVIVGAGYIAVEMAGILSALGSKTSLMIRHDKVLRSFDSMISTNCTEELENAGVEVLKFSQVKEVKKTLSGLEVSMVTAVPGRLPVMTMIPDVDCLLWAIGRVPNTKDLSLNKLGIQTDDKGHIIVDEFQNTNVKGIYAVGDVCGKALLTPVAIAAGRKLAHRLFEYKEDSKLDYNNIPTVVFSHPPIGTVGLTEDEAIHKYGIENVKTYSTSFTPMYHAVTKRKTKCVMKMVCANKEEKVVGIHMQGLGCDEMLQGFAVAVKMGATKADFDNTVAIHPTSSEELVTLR
Protocol: (§1) The Formula (I) compound was utilized at a concentration of 0.5 mM.

[1] = target: T2, GR + GRX + GSH (coupled glutaredoxin/glutathione/glutathione reductase system) (Homo sapiens, UniProt P35754); experiment: NADPH oxidation, coupled GRX/GSH/GR system; assay type: biochemical
T2 sequence (P35754 1-106): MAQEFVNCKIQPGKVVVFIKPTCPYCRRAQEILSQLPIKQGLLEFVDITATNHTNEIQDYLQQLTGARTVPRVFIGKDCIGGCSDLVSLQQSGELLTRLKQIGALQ
Protocol: as §1

[2] = interference with paclitaxel and platinum regimens in animal models; assay type: in vivo
Excerpt: An important element of Tavocept's™ effectiveness as a compound in the treatment of cancer is its selectivity for normal cells versus cancer cells and its inability to interfere with the anti-cancer activity of chemotherapeutic agents.

[3] = target: T3, glutathione reductase (GR) (Homo sapiens, UniProt P00390); experiment: NADPH oxidation, glutathione reductase (GR) alone; assay type: biochemical
T3 sequence (P00390 44-522): T1 sequence (P00390 44-522)
Protocol: as §1

[4] = system: non-small cell lung carcinoma (NSCLC) cell lines; experiment: cytotoxicity study in combination with chemotherapeutic agents, NSCLC cell lines; assay type: cell-based, human; details: Tavocept in combination with cisplatin vs cisplatin only controls
Thioredoxin Reductase = target: T4, Thioredoxin Reductase (Bos taurus, UniProt O62768); experiment: NADPH oxidation at 340 nm, thioredoxin reductase only; assay type: biochemical, bovine
T4 sequence (O62768 1-499): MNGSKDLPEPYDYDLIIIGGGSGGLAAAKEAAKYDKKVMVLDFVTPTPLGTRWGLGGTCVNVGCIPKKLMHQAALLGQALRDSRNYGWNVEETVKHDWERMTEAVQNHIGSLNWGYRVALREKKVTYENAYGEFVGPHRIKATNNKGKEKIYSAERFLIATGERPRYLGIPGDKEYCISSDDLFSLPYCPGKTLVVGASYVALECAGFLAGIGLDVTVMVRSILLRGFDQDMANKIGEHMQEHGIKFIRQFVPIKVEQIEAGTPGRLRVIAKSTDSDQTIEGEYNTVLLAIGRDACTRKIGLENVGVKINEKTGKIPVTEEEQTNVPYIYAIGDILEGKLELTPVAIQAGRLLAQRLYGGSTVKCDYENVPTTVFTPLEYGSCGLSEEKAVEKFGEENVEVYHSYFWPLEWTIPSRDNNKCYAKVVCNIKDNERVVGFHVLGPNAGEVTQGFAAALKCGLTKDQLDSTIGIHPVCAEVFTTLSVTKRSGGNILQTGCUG
Protocol: Biochemistry 21:6628-6633 (1982).
Data was then collected and plotted in Microsoft Excel. Error calculations, and graphical representations were performed in Microsoft Excel and Kaleidograph (ver. 3.5). Nonlinear data was graphically rendered using Kaleidograph. ANOVA and other statistical analyses were performed using SAS (ver. 8.2). Unless otherwise noted, significance level was set at 0.05, and error bars represent actual experimental standard deviation.
It should be noted that for the purposes of FIG. 17 only, thioredoxin is labeled TXR and thioredoxin reductase is labeled TRR.

[5] = system: patients with advanced non-small cell lung carcinoma (NSCLC), including the adenocarcinoma sub-type; experiment: Japan Phase III Clinical Trial (paclitaxel + cisplatin with Tavocept or placebo); assay type: in vivo, human
Protocol: Patients admitted into the trial included those patients without previous treatment (excluding surgical treatment, administration of Picibanil into the serous membrane, irradiation of 30% or less hematopoietic bone, or oral chemotherapeutic agents within 3 months of entry in the trial).
The Japan Phase III Clinical Trial was conducted as a double-blind study because peripheral neuropathy is diagnosed based on subjective symptoms evaluated through clinical interviews, lab tests, and the like. Accordingly, evaluations by both physicians and patients are highly important. […] A placebo was used as control since there is no established therapy or drug for preventing peripheral neuropathy. Because the severity of peripheral neuropathy is evaluated based on patient's reports (i.e., subjective symptoms), the Peripheral Neuropathy Questionnaire (PNQ©) was used in primary evaluation. CIPN-20 and NCI-CTC were used in secondary evaluation. The incidence and severity of adverse reactions, time to their onset, etc. and the like, were compared between patients treated with Tavocept™ and those given a placebo using the aforementioned methods.

whole cells = experiment: whole cell mediated disulfide reduction (α-lipoic acid, hydroxyethyldisulfide); assay type: cell-based; details: treatments with paclitaxel, cisplatin and Tavocept
[6] = FIG. 7, Tavocept arm (5 in the placebo arm)

O=S(=O)([O-])CCSSCCS(=O)(=O)[O-].[Na+].[Na+] [Tavocept™, disodium 2,2′-dithio-bis-ethane sulfonate]
NADPH Oxidation, GR + GSH (GR + GSH): 2.9 ± 1.6 nmol/min/mL
NADPH Oxidation, GR + GRX + GSH ([1]; Disulfide 0.5 mM, n = 6): 15.3 ± 1.0 nmol/min/mL
substrate-like activity with glutaredoxin / alternative substrate inhibitor for the coupled GRX/GSH/GR system ([1]; in the presence of reduced glutathione and glutathione reductase, result in words): exhibits substrate-like activity
interference with paclitaxel and platinum regimens [2]: did not interfere
NADPH Oxidation, GR ([3]; Disulfide 0.5 mM, n = 6): 0.0 ± 0.01 nmol/min/mL
substrate / alternative substrate inhibitor for glutathione reductase ([3]; result in words): not a substrate
cell death [4]: increase in cell death
NADPH Oxidation, Thioredoxin Reductase only (Thioredoxin Reductase; Disulfide 0.5 mM, minimum of triplicate assays): 0.3 ± 0.01 nmol/min/mL
NADPH oxidation by TXR in the absence of TX (Thioredoxin Reductase; FIG. 17): indistinguishable from background
substrate for thioredoxin reductase alone (Thioredoxin Reductase; result in words): not thioredoxin reductase alone; also recorded: not for TXR
reduction in severe (Grade D or E) peripheral neuropathy (PNQ, Primary Endpoint) ([5]; FIG. 5, paclitaxel/Tavocept/cisplatin regimen vs paclitaxel/saline placebo/cisplatin regimen, NSCLC patients): ~50%
patients with Grade 3 (severe) decrease in hematocrit levels [5, 6]: 1 patients
patients with Grade 3 (severe) decrease in red blood cell levels [5, 6]: 1 patients
patients with Grade 3 (severe) decrease in hemoglobin ([5]; FIG. 7, Tavocept arm (8 in the placebo arm)): 2 patients
response rate as measured by the IRC ([5]; FIG. 8, Tavocept arm (28.6% in the placebo arm)): 33.3%
Response Rate, as measured by physicians (Doctor) ([5]; FIG. 8, Tavocept arm (33.0% in the placebo arm)): 41.9%
increase in median survival time ([5]; FIG. 9, NSCLC patients incl. adenocarcinoma, paclitaxel/Tavocept/cisplatin vs paclitaxel/saline placebo/cisplatin): up to 40 days
survival period, female patient population ([5]; FIG. 10, female NSCLC patients, paclitaxel/Tavocept/cisplatin vs paclitaxel/saline placebo/cisplatin): longer survival period
increase in median survival time, adenocarcinoma patients ([5]; FIG. 11, adenocarcinoma sub-type, paclitaxel/Tavocept/cisplatin vs paclitaxel/saline placebo/cisplatin): up to 138 days
increase in median survival time, adenocarcinoma patients ([5]; FIG. 11, adenocarcinoma sub-type, paclitaxel/Tavocept/cisplatin vs paclitaxel/saline placebo/cisplatin, listed as Tavocept): approximately 138 days
chemotherapy-induced vomiting/emesis and kidney damage ([5]; Tavocept and chemotherapy vs chemotherapy and placebo, result in words): medically-important reductions
increase in median survival time, adenocarcinoma patients ([5]; adenocarcinoma patients in the Tavocept arm): ~4.5 months
whole cell mediated disulfide reduction (whole cells): declined
